Source: US20160244728A1, “CULTURE METHOD FOR PLURIPOTENT STEM CELLS AND KIT AND MEDIUM FOR CULTURE OF PLURIPOTENT STEM CELLS USED THEREIN” (FUJIFILM Corporation, priority 2013, published 2016)

How the values were obtained:
human iPS cells [1] = test: Cell adhesiveness evaluation 2 (synthetic polypeptides added to cells seeded on natural vitronectin); type: cell-based; settings: 100 μM synthetic polypeptide
Protocol: The polypeptides shown in Table 7 were synthesized by an Fmoc solid-phase synthesis method. A surface onto which natural vitronectin was adsorbed at a concentration of 130 pmol/cm^2 was prepared, and then a cell suspension to which 100 μM of the aforementioned synthetic polypeptides were added was seeded into wells at a ratio of 30,000 cells/well. The number of adhesive cells 24 hours after seeding was calculated in the same manner as in <Cell adhesiveness evaluation 1>, and the results are shown in Table 7. In Table 7, the cell adhesion rate is expressed as a relative value calculated by regarding the cell adhesion rate obtained by using a culture solution not containing the synthetic polypeptides as being 100%. n=3.

human iPS cells [2] = test: Growth evaluation in Essential 8 medium with magnesium ascorbyl phosphate; type: cell-based; settings: for number of growing cells depending on the concentration of magnesium ascorbyl phosphate (in words): Tables 10 to 13; for Number of cells after 3 days (%): n=3
Protocol: The growth of cells was evaluated in the same manner as in Reference example 5.
Magnesium ascorbyl phosphate was added to a medium. […] The samples were adsorbed onto a 96-well plate, and the iPS cells collected in the same manner as in <Cell adhesiveness evaluation 1> were seeded into the plate at a ratio of 1×10^4 cells/well and cultured for 3 days in a 5% CO2 incubator at 37° C. The number of cells after 3 days was measured in the same manner as in <Cell adhesiveness evaluation 1>. Furthermore, by using VTN-N (manufactured by Life Technologies) and Vitronectin-XF (manufactured by Primorigen Biosciences), the growth of the cells was evaluated in the same manner.
The results obtained from RCP-17 are shown in Table 10, the results obtained from Human Recombinant Laminin-511 are shown in Table 11, the results obtained from VTN-N (manufactured by Life Technologies) are shown in Table 12, and the results obtained from Vitronectin-XF (manufactured by Primorigen Biosciences) are shown in Table 13. In Tables 10 and 11, the number of cells is expressed as a relative value calculated by regarding the number of cells at the concentration of magnesium ascorbyl phosphate of 0.8 mmol/L as being 100. n=3.

[3] = Evaluation of adsorbability with respect to culture dish; type: physicochemical; settings: FIG. 1
Protocol: Each of the polypeptides obtained as above was diluted with a predetermined buffer such that they could be added to wells at a predetermined final concentration of 0 pmol/cm^2 to 200 pmol/cm^2. Thereafter, each of the polypeptides was added in an amount of 64 μL to a plasma-treated 96-well plate made of polystyrene (Tissue Culture-Treated, Falcon). Each of the polypeptides was allowed to adsorb onto the plate by being incubated for 2 hours at 37° C., and then the wells were washed twice with PBS, thereby obtaining surfaces coated with each of the polypeptides of RCP-1 to RCP-16.
Among the surfaces coated with each of the polypeptides obtained as above, the surfaces coated with RCP-1 and RCP-11 to RCP-16 were applied with 64 μL of a borate buffer and 64 μL of 1 N NaOH, followed by incubation for 24 hours at 80° C. and 100% humidity. After the resultant was air-cooled, 75 μL of a borate buffer was added to each well, and 50 μL of a reaction solution obtained by mixing OPA (o-phthalaldehyde: Wako Pure Chemical Industries, Ltd./methanol solution (160 mg/ml)) with N-acetyl-L-cysteine (NAC: Wako Pure Chemical Industries, Ltd.)/borate buffer solution (2 mg/ml) at a ratio of 1:100 (mass ratio) was further added thereto. After incubation for 30 minutes at 40° C., the fluorescence intensity thereof was measured by using an Envision Multilabel Counter (PerkinElmer Inc.) (excitation 355 nm/fluorescence 486 nm). A calibration curve was separately prepared from each of the polypeptide solutions so as to calculate the amount of the polypeptide adsorbed. In FIG. 1, a black rhombus indicates RCP-1, a black square indicates RCP-11, a black triangle indicates RCP-12, a black circle indicates RCP-13, a white rhombus indicates RCP-14, a white square indicates RCP-15, and a white triangle indicates RCP-16.

human iPS cells [4] = test: Evaluation of maintenance of undifferentiated state; type: cell-based
Protocol: iPS cells collected in the same manner as in <Cell adhesiveness evaluation 1> were suspended in TeSR2. The iPS cells were seeded into 6-well plate (Tissue culture-treated, Falcon), onto which each of the samples 1, 2, 5, 6, and 7 used in <Cell adhesiveness evaluation 1> was adsorbed in the same manner as in <Cell adhesiveness evaluation 1>, and cultured in a CO2 incubator at 37° C. Except for the day after the seeding, the medium was replaced every day. In the same method as described above, the cells were subcultured every six days. FIGS. 3A to 3E show forms of the iPS cells cultured on each of the samples.
After being cultured for 1 month under the conditions described above, the cells were immobilized using 4% paraformaldehyde and treated with 1% Triton-X/PBS so as to enhance the membrane permeability. After the cells were subjected to a blocking treatment using an Image IT Signal Enhancer (Invitrogen), an anti-human NANOG antibody (AF 1997, R&D Systems, Inc.), an Alexa Fluor 555 binding rabbit anti-goat IgG antibody (Invitrogen), and DAPI (Dojindo Molecular Technologies, Inc.) were added thereto for labeling, and the cells were imaged using a fluorescence microscope. FIGS. 4A to 4E show the fluorescence microscopic images.
FIGS. 3A and 4A show the iPS cells cultured on RCP-1; FIGS. 3B and 4B show the iPS cells cultured on RCP-11; FIGS. 3C and 4C show the iPS cells cultured on natural human vitronectin; FIGS. 3D and 4D show the iPS cells cultured on rLaminin-5; and FIGS. 3E and 4E show the iPS cells cultured on rLaminin-511. The scale bar in the images indicates 100 μm. In FIGS. 3A to 3E, the images on the left side are full images of the colony, and the images on the right side are magnified images. In FIGS. 4A to 4E, the images on the left side are images of the cells stained with DAPI, and the images on the right side are images of the cells stained with an anti-NANOG antibody. The scale bar in FIGS. 3 and 4 indicates 200 μm.

In the case of CCTDYTAECKPQVTRGEVFT [Peptide-7], the “adhesion of cells to the natural vitronectin on addition of the peptide (in words)” value (“adhesion of cells” below) (human iPS cells [1]) is reported as “not hindered”.

With TAECKPQVTRGEVFTMPEDE [Peptide-8] the “adhesion of cells” value (human iPS cells [1]) was “not hindered”.

For “KGRCTEGFNVDKKCQCDELC [Peptide-2, polypeptide synthesized by an Fmoc solid-phase synthesis method]”, the “adhesion of cells” value (human iPS cells [1]) was “not hindered”.

For “TAECKPQVTRGDVFTMPEDE [Peptide-6, polypeptide synthesized by an Fmoc solid-phase synthesis method]”, the “adhesion of cells” value (human iPS cells [1]) was “significantly hindered”.

In the case of “DQESCKGRCTEGFNVDKKCQ [Peptide-1, polypeptide synthesized by an Fmoc solid-phase synthesis method]”, the “adhesion of cells” value (human iPS cells [1]) is reported as “not hindered”.

For “EGFNVDKKCQCDELCSYYQS [Peptide-3, polypeptide synthesized by an Fmoc solid-phase synthesis method]”, the “adhesion of cells” value (human iPS cells [1]) was “not hindered”.

With “Laminin-511: recombinant laminin (Human Recombinant Laminin-511: BIOLAMINA AB), control” the “number of growing cells depending on the concentration of magnesium ascorbyl phosphate (in words)” value (human iPS cells [2]) was “does not depend”, the “Number of cells after 3 days (%)” value (human iPS cells [2]; magnesium ascorbyl phosphate 0.2 mmol/L, added amount 20 μg/cm^3, Table 11, relative to 0.8 mmol/L = 100) was 61% and the “Number of cells after 3 days (%)” value (human iPS cells [2]; magnesium ascorbyl phosphate 0.5 mmol/L, added amount 20 μg/cm^3, Table 11, relative to 0.8 mmol/L = 100) was 79%. For the same molecule, the “Number of cells after 3 days (%)” value (human iPS cells [2]; magnesium ascorbyl phosphate 0.8 mmol/L, added amount 20 μg/cm^3, Table 11, reference = 100) was 100%, the “Number of cells after 3 days (%)” value (human iPS cells [2]; magnesium ascorbyl phosphate 1.6 mmol/L, added amount 20 μg/cm^3, Table 11, relative to 0.8 mmol/L = 100) was 90% and the “Number of cells after 3 days (%)” value (human iPS cells [2]; magnesium ascorbyl phosphate 3.7 mmol/L, added amount 20 μg/cm^3, Table 11, relative to 0.8 mmol/L = 100) was 114%. The “Number of cells after 3 days (%)” value (human iPS cells [2]; magnesium ascorbyl phosphate 9.1 mmol/L, added amount 20 μg/cm^3, Table 11, relative to 0.8 mmol/L = 100) was 100% and the “Number of cells after 3 days (%)” value (human iPS cells [2]; magnesium ascorbyl phosphate 18.1 mmol/L, added amount 20 μg/cm^3, Table 11, relative to 0.8 mmol/L = 100) was 112%.

For “DKKCQCDELCSYYQSCCTDY [Peptide-4, polypeptide synthesized by an Fmoc solid-phase synthesis method]”, the “adhesion of cells” value (human iPS cells [1]) was “significantly hindered”.

In the case of “CCTDYTAECKPQVTRGDVFT [Peptide-5, polypeptide synthesized by an Fmoc solid-phase synthesis method]”, the “adhesion of cells” value (human iPS cells [1]) is reported as “significantly hindered”.

In the case of “RCP-14: recombinant polypeptide, human vitronectin positions 1-55 (GPLGDQESCKGRCTEGFNVDKKCQCDELCSYYQSCCTDYTAECKPQVTRGDVFTMPEDE; Synthetic Peptide RCP-14)”, the “amount adsorbed onto the plate relative to the polypeptide including SEQ ID NO: 3” value [3] is reported as “about 1/4”.

B1: Natural vitronectin: human vitronectin (extracted from human serum, BD Biosciences), control (protein, listed as Homo sapiens)
chain: DQESCKGRCTEGFNVDKKCQCDELCSYYQSCCTDYTAECKPQVTRGDVFTMPEDEYTVYDDGEEKNNATVHEQVGGPSLTSDLQAQSKGNPEQTPVLKPEEEAPAPEVGASKPEGIDSRPETLHPGRPQPPAEEELCSGKPFDAFTDLKNGSLFAFRGQYCYELDEKAVRPGYPKLIRDVWGIEGPIDAAFTRINCQGKTYLFKGSQYWRFEDGVLDPDYPRNISDGFDGIPDNVDAALALPAHSYSGRERVYFFKGKQYWEYQFQHQPSQEECEGSSLSAVFEHFAMMQRDSWEDIFELLFWGRTSAGTRQPQFISRDWHGVPGQVDAAMAGRIYISGMAPRPSLAKKQRFRHRNRKGYRSQRGHSRGRNQNSRRPSRATWLSLFSSEESNLGANNYDDYRMDWLVPATCEPIQSVFFFSGDKYYRVNLRTRRVDTVDPPYPRSIAQYWLGCPAPGHL
For B1, the “form of the iPS cell colony” value (human iPS cells [4]; FIGS. 3A to 3E, TeSR2, subcultured every six days) was “form specific to undifferentiated cells” and the “maintenance of the undifferentiated state (NANOG staining)” value (human iPS cells [4]; FIGS. 4A to 4E, after culture for 1 month) was “strongly expressed NANOG in the entirety of the colony”.

B2: RCP-17: recombinant polypeptide, human vitronectin positions 1-55, 269-277, 295-341, 342-373, C274S (protein)
chain: MDQESCKGRCTEGFNVDKKCQCDELCSYYQSCCTDYTAECKPQVTRGDVFTMPEDESQEESEGSEDIFELLFWGRTSAGTRQPQFISRDWHGVPGQVDAAMAGRIYISGMAPRPSLAKKQRFRHRNRKGYRSQRGHSRGRNQN
modifications: Synthetic Peptide RCP-17
notes: recombinant polypeptide, human vitronectin positions 1-55, 269-277, 295-341, 342-373, C274S
For B2, the “number of growing cells depending on the concentration of magnesium ascorbyl phosphate (in words)” value (human iPS cells [2]) was “increases”, the “Number of cells after 3 days (%)” value (human iPS cells [2]; magnesium ascorbyl phosphate 0.2 mmol/L, added amount 100 μg/cm^3, 1×10^4 cells/well, relative to 0.8 mmol/L = 100) was 114% and the “Number of cells after 3 days (%)” value (human iPS cells [2]; magnesium ascorbyl phosphate 0.5 mmol/L, added amount 100 μg/cm^3, 1×10^4 cells/well, relative to 0.8 mmol/L = 100) was 98%. For the same molecule, the “Number of cells after 3 days (%)” value (human iPS cells [2]; magnesium ascorbyl phosphate 0.8 mmol/L, added amount 100 μg/cm^3, 1×10^4 cells/well, reference = 100) was 100%, the “Number of cells after 3 days (%)” value (human iPS cells [2]; magnesium ascorbyl phosphate 1.6 mmol/L, added amount 100 μg/cm^3, 1×10^4 cells/well, relative to 0.8 mmol/L = 100) was 145% and the “Number of cells after 3 days (%)” value (human iPS cells [2]; magnesium ascorbyl phosphate 3.7 mmol/L, added amount 100 μg/cm^3, 1×10^4 cells/well, relative to 0.8 mmol/L = 100) was 219%. The “Number of cells after 3 days (%)” value (human iPS cells [2]; magnesium ascorbyl phosphate 9.1 mmol/L, added amount 100 μg/cm^3, 1×10^4 cells/well, relative to 0.8 mmol/L = 100) was 212%, the “Number of cells after 3 days (%)” value (human iPS cells [2]; magnesium ascorbyl phosphate 18.1 mmol/L, added amount 100 μg/cm^3, 1×10^4 cells/well, relative to 0.8 mmol/L = 100) was 204% and the “Number of cells after 3 days (%)” value (human iPS cells [2]; magnesium ascorbyl phosphate 36.0 mmol/L, added amount 100 μg/cm^3, 1×10^4 cells/well, relative to 0.8 mmol/L = 100) was 230%.
